From US10899769B2, “Imidazopiperazinone inhibitors of transcription activating proteins” (Board of Regents, The University of Texas System, priority 2018, dated 2021)

Assays:
BRD4(49-170) bromodomain = BRD4(49-170) bromodomain (Homo sapiens (Human), UniProt O60885); assay: BRD4 AlphaScreen Assay; details: binding to biotin-H4(1-21) Ac-K5/8/12/16
Protocol: (§1) Specific binding of the CBP or BRD4 bromodomain to the acetylated peptide derived from the H4 histone substrate (tetra acetylated H4(1-21) Ac-K5/8/12/16) was measured in absence or presence of inhibitors. The GST tagged bromodomains of CBP (1081-1197) and BRD4 (49-170) were obtained from BPS Bioscience and binding to the biotinylated H4(1-21) Ac-K5/8/12/16 (AnaSpec. 64989) was assessed via AlphaScreen technology (Perkin Elmer).
(§2) 5 nM GST-CBP(1081-1197) and 20 nM biotin-H4(1-21) Ac-K5/8/12/16 (AnaSpec. 64989) were incubated with varying concentrations of CBP inhibitors in 15 μL of buffer containing 50 mM HEPES 7.5, […], 1 mM TCEP, and 0.003% Tween-20. After 30 minutes incubation at room temperature, 15 μL of detection buffer (BPS Bio. 33006) containing 7 μg/mL of Glutathione AlphaLisa acceptor beads (Perkin Elmer AL109) and 14 μg/mL of Streptavidin donor beads (Perkin Elmer 676002) was then added to the previous mixture. The reaction was incubated for an additional 2 hours at room temperature, and the AlphaScreen signal was quantified using the Envision Multilabel plate reader. As negative control, GST-CBP(1081-1197) was incubated with the non-acetylated biotin-H4(1-21) peptide(AnaSpec. 62555) and in presence of 0.25% of final DMSO concentration.
(§3) the binding of 2.5 nM of BRD4(49-170) to 10 nM biotin-H4(1-21) Ac-K5/8/12/16 (AnaSpec. 64989) was assessed following the same procedure described for the CBP assay. The standard dose response curves were fitted by Genedata Screener software using the variable-slope model: Signal=Signalnegative control+(SignalDMSO control−Signalnegative control)/(1+(IC50/Dose)^Hill slope).
(§4) Only Signal and Dose in the equation were treated as know values.

[1] = target: GST-CBP(1081-1197) bromodomain (Homo sapiens (Human), UniProt Q92793); assay: CBP AlphaScreen Assay; details: binding to biotin-H4(1-21) Ac-K5/8/12/16
Protocol: as §1, §2, §3, §4

Sequence of GST-CBP(1081-1197) bromodomain (Q92793 1081-1197): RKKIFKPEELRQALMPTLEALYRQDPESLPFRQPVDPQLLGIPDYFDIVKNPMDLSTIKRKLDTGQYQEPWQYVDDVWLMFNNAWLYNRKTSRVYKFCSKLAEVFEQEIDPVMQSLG

| Structure (SMILES) | IC50 (BRD4(49-170) bromodomain) | IC50 [1] |
| --- | --- | --- |
| CC1C(=O)N(C)Cc2c(-c3cccc4nc(C5=CCOCC5)c(C(F)F)cc34)nc(C3CC3)n21 (centres unmarked) [Example 9, 3-Cyclopropyl-1-(3-(difluoromethyl)-2-(3,6-dihydro-2H-pyran-4-yl)quinolin-5-yl)-5,7-dimethyl-7,8-dihydroimidazo[1,5-a]pyrazin-6(5H)-one] | 0.366 µM | 0.003 µM |
| CC1C(=O)N(C)Cc2c(-c3cccc4cc(N5CCOCC5)ncc34)nc(C3CCOCC3)n21 (single isomer, unassigned) [Example 16a, 5,7-Dimethyl-1-(3-morpholinoisoquinolin-8-yl)-3-(tetrahydro-2H-pyran-4-yl)-7,8-dihydroimidazo[1,5-a]pyrazin-6(5H)-one] | ≥ 25 µM | 1.12 µM |
| CC1C(=O)N(C)Cc2c(-c3cccc4nc(-c5cnn(C)c5)c(C(F)F)cc34)nc(C3CN(CC(F)F)C3)n21 (centres unmarked) [Example 22, 3-(1-(2,2-Difluoroethyl)azetidin-3-yl)-1-(3-(difluoromethyl)-2-(1-methyl-1H-pyrazol-4-yl)quinolin-5-yl)-5,7-dimethyl-7,8-dihydroimidazo[1,5-a]pyrazin-6(5H)-one] | 4.34 µM | 0.011 µM |
| Cc1cn(-c2cc3cccc(-c4nc(C5CC5)n5c4CN(C)C(=O)C5C)c3cn2)cn1 (centres unmarked) [Example 70, 3-cyclopropyl-5,7-dimethyl-1-(3-(4-methyl-1H-imidazol-1-yl)isoquinolin-8-yl)-7,8-dihydroimidazo[1,5-a] pyrazin-6(5H)-one] | 0.667 µM | 0.002 µM |
| Cc1nn(C)cc1-c1cc2cccc(-c3nc(C4CCOCC4)n4c3CN(C)C(=O)C4C)c2cn1 (centres unmarked) [Example 87, 1-(3-(1,3-dimethyl-1H-pyrazol-4-yl)isoquinolin-8-yl)-5,7-dimethyl-3-(tetrahydro-2H-pyran-4-yl)-7,8-dihydroimidazo[1,5-a] pyrazin-6(5H)-one] | 10.7 µM | 0.077 µM |
| CC1C(=O)N(C)Cc2c(-c3cc4c(-c5cnn(C)c5)nn(C)c4cc3F)nc(C3=CCOCC3)n21 (centres unmarked) [Example 42, 3-(3,6-Dihydro-2H-pyran-4-yl)-1-(6-fluoro-1-methyl-3-(1-methyl-1H-pyrazol-4-yl)-1H-indazol-5-yl)-5,7-dimethyl-7,8-dihydroimidazo[1,5-a]pyrazin-6(5H)-one] | 3.33 µM | 0.028 µM |
| CC1C(=O)N(C)Cc2c(-c3cccc4nc(-c5cnn(C)c5)c(C(F)F)cc34)nc(C3CCN(S(C)(=O)=O)CC3)n21 (centres unmarked) [Example 83, 1-(3-(difluoromethyl)-2-(1-methyl-1H-pyrazol-4-yl)quinolin-5-yl)-5,7-dimethyl-3-(1-(methylsulfonyl)piperidin-4-yl)-7,8-dihydroimidazo[1,5-a] pyrazin-6(5H)-one] | 3.23 µM | 0.042 µM |
| CN1Cc2c(-c3ccc4c(c3)c(-c3cnn(C)c3)nn4C)nc(C3CC3)n2CC1=O [Example 107, 3-cyclopropyl-7-methyl-1-(1-methyl-3-(1-methyl-1H-pyrazol-4-yl)-1H-indazol-5-yl)-7,8-dihydroimidazo [1,5-a] pyrazin-6(5H)-one] | 6.82 µM | 0.029 µM |
| CC1C(=O)N(C)Cc2c(-c3cccc4nc(-c5ncco5)c(C(F)F)cc34)nc(C3CC3)n21 (centres unmarked) [Example 74, 3-cyclopropyl-1-(3-(difluoromethyl)-2-(oxazol-2-yl)quinolin-5-yl)-5,7-dimethyl-7,8-dihydroimidazo[1,5-a] pyrazin-6(5H)-one] | 0.179 µM | 0.004 µM |
| CN1Cc2c(N3CCCc4nc(-c5cnn(C)c5)c(C(F)(F)F)cc43)nc(C3CC3)n2CC1=O [Example 39, 3-Cyclopropyl-7-methyl-1-(6-(1-methyl-1H-pyrazol-4-yl)-7-(trifluoromethyl)-3,4-dihydro-1,5-naphthyridin-1(2H)-yl)-7,8-dihydroimidazo[1,5-a]pyrazin-6(5H)-one] | 25 µM | 0.185 µM |
| Cc1c(-c2cc3cccc(-c4nc(C5CC5)n5c4CN(C)C(=O)C5C)c3cn2)cnn1C (centres unmarked) [Example 59, 3-cyclopropyl-1-(3-(1,5-dimethyl-1H-pyrazol-4-yl)isoquinolin-8-yl)-5,7-dimethyl-7,8-dihydroimidazo[1,5-a] pyrazin-6(5H)-one] | 0.496 µM | 0.004 µM |
| CC1C(=O)N(C)Cc2c(-c3cccc4cc(N5CCOCC5)ncc34)nc(C3CCOCC3)n21 (single isomer, unassigned) [Example 16b, 5,7-Dimethyl-1-(3-morpholinoisoquinolin-8-yl)-3-(tetrahydro-2H-pyran-4-yl)-7,8-dihydroimidazo[1,5-a]pyrazin-6(5H)-one] | 0.353 µM | 0.003 µM |
| CN1Cc2c(-c3cccc4nc(-c5cnn(C)c5)c(C(F)F)cc34)nc(C3CCOCC3)n2C(F)C1=O (centres unmarked) [Example 27, 1-(3-(Difluoromethyl)-2-(1-methyl-1H-pyrazol-4-yl)quinolin-5-yl)-5-fluoro-7-methyl-3-(tetrahydro-2H-pyran-4-yl)-7,8-dihydroimidazo[1,5-a]pyrazin-6(5H)-one] | 8.94 µM | 0.043 µM |
| CC1C(=O)N(C)Cc2c(-c3cccc4cc(C5CCOCC5)ncc34)nc(C3CC3)n21 (centres unmarked) [Example 58, 3-cyclopropyl-5,7-dimethyl-1-(3-(tetrahydro-2H-pyran-4-yl)isoquinolin-8-yl)-7,8-dihydroimidazo[1,5-a] pyrazin-6(5H)-one] | 0.188 µM | 0.002 µM |
| Cc1cn(-c2cc3cccc(-c4nc(C5CCOCC5)n5c4CN(C)C(=O)C5C)c3cn2)cn1 (single isomer, unassigned) [Example 30b, 5,7-dimethyl-1-(3-(4-methyl-1H-imidazol-1-yl)isoquinolin-8-yl)-3-(tetrahydro-2H-pyran-4-yl)-7,8-dihydroimidazo[1,5-a]pyrazin-6(5H)-one] | 18.6 µM | 0.373 µM |

Continued, values first:

| IC50 (BRD4(49-170) bromodomain) | IC50 [1] | Structure (SMILES) |
| --- | --- | --- |
| ≥ 25 µM | 1.61 µM | Cc1cn(-c2cc3ccc(F)c(-c4nc(C5CCOCC5)n5c4CN(C)C(=O)C5C)c3cn2)cn1 (single isomer, unassigned) [Example 33a, 1-(7-fluoro-3-(4-methyl-1H-imidazol-1-yl)isoquinolin-8-yl)-5,7-dimethyl-3-(tetrahydro-2H-pyran-4-yl)-7,8-dihydroimidazo[1,5-a]pyrazin-6(5H)-one] |
| 0.101 µM | 0.001 µM | C[C@@H]1C(=O)N(C)Cc2c(-c3cccc4nc(-c5ccn(C)n5)c(C(F)F)cc34)nc(C3CCOCC3)n21 [Example 89a, (R)-1-(3-(difluoromethyl)-2-(1-methyl-1H-pyrazol-3-yl)quinolin-5-yl)-5,7-dimethyl-3-(tetrahydro-2H-pyran-4-yl)-7,8-dihydroimidazo[1,5-a] pyrazin-6(5H)-one] |
| ≥ 25 µM | 0.647 µM | Cc1ncc(-c2cc3ccc(F)c(-c4nc(C5CCOCC5)n5c4CN(C)C(=O)C5C)c3cn2)s1 (single isomer, unassigned) [Example 37b, 1-(7-Fluoro-3-(2-methylthiazol-5-yl)isoquinolin-8-yl)-5,7-dimethyl-3-(tetrahydro-2H-pyran-4-yl)-7,8-dihydroimidazo[1,5-a]pyrazin-6(5H)-one] |
| 25 µM | 0.51 µM | C[C@H]1C(=O)N(C)Cc2c(-c3cccc4cc(-c5cnn(C)c5)ncc34)nc(C3CC3)n21 [Example 111a, (S)-3-cyclopropyl-5,7-dimethyl-1-(3-(1-methyl-1H-pyrazol-4-yl)isoquinolin-8-yl)-7,8-dihydroimidazo[1,5-a] pyrazin-6(5H)-one] |
| 1.23 µM | 0.008 µM | CC1C(=O)N(C)Cc2c(-c3c(F)ccc4cc(C5CCOCC5)ncc34)nc(C3CCOCC3)n21 (single isomer, unassigned) [Example 34b, 1-(7-Fluoro-3-(tetrahydro-2H-pyran-4-yl)isoquinolin-8-yl)-5,7-dimethyl-3-(tetrahydro-2H-pyran-4-yl)-7,8-dihydroimidazo[1,5-a]pyrazin-6(5H)-one] |
| ≥ 25 µM | 0.144 µM | CC1C(=O)N(C)Cc2c(-c3c(F)ccc4nc(-c5cnn(C)c5)c(C(F)F)cc34)nc(C3CCOCC3)n21 (single isomer, unassigned) [Example 36b, 1-(3-(Difluoromethyl)-6-fluoro-2-(1-methyl-1H-pyrazol-4-yl)quinolin-5-yl)-5,7-dimethyl-3-(tetrahydro-2H-pyran-4-yl)-7,8-dihydroimidazo[1,5-a]pyrazin-6(5H)-one] |
| 0.287 µM | 0.003 µM | Cc1nn(C)cc1-c1cc2ccc(F)c(-c3nc(C4CCOCC4)n4c3CN(C)C(=O)C4C)c2cn1 (single isomer, unassigned) [Example 91b, 1-(3-(1,3-dimethyl-1H-pyrazol-4-yl)-7-fluoroisoquinolin-8-yl)-5,7-dimethyl-3-(tetrahydro-2H-pyran-4-yl)-7,8-dihydroimidazo[1,5-a] pyrazin-6(5H)-one] |
